We go through six compounds from patent publication US10538555B2, “Macrocyclic inhibitors of the PD-1/PD-L1 and CD80(B7-1)/PD-L1 protein/protein interactions” (BRISTOL-MYERS SQUIBB COMPANY, priority 2014, dated 2020).

In this test the target is T1, Human PD-L1/PD-1 (Homo sapiens, UniProt Q9NZQ7).
T1 construct: TVMV protease cleavage site (C); made in house; host or cells: HEK293T cells
Description: HTRF Human PD-L1/PD-1 binding assay (PD-1-Ig/PD-L1-His). Conditions: PD-L1-His 10 nM, PD-1-Ig 20 nM; class symbol; read-out: HTRF Human PD-L1/PD-1 Binding Assay IC50 Range. The gist of the method: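 Compound preincubated 15 min with PD-L1-His (10 nM final), then PD-1-Ig (20 nM final) added for 15 min in dPBS with 0.1% BSA and 0.05% Tween-20. Detection by Eu-cryptate anti-Ig (1 nM) and APC anti-His (20 nM) after 30 min; 665/620 nm HTRF ratio. Proteins expressed in HEK293T.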

The structures appear in SMILES notation. Where a SMILES comes first, the peptide text is derived from it. Bridges are numbered along the chain shown (N, C = ends). [ ]: non-standard residue; d: D form. ξ: configuration not given here. Trp(βS-Me) = C[C@@H](c1c[nH]c2ccccc12)[C@H](N)C(=O)O; Phe(4-F) = N[C@@H](Cc1ccc(F)cc1)C(=O)O; Hyp = O=C(O)[C@@H]1C[C@@H](O)CN1; NMeF = CN[C@@H](Cc1ccccc1)C(=O)O; NMeNle = CCCC[C@H](NC)C(=O)O; NMeV = CN[C@H](C(=O)O)C(C)C; dPip = O=C(O)[C@H]1CCCCN1; hSer = N[C@@H](CCO)C(=O)O; NMeA = CN[C@@H](C)C(=O)O; Orn = NCCC[C@H](N)C(=O)O; Dab = NCC[C@H](N)C(=O)O; Abu = CC[C@H](N)C(=O)O; ξC = NC(CS)C(=O)O

T1 sequence (Q9NZQ7 with tags, fused parts or gaps): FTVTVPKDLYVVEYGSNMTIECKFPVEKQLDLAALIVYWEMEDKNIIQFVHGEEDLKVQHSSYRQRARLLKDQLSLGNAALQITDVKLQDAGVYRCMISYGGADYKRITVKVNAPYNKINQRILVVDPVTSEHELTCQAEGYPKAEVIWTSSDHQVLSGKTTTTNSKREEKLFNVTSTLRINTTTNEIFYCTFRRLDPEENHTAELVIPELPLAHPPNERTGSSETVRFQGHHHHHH

As to `CCCC[C@H]1C(=O)N[C@@H](CC(N)=O)C(=O)N2CCC[C@H]2C(=O)N[C@@H](CO)C(=O)N[C@@H](CCO)C(=O)N2CCC[C@H]2C(=O)N[C@@H](Cc2c[nH]c3ccccc23)C(=O)N[C@@H](CCO)C(=O)N[C@@H](Cc2c[nH]c3ccccc23)C(=O)N(C)[C@@H](C)C(=O)N(C)[C@@H](C)C(=O)N[C@@H](CCCN)C(=O)NC(C(=O)NCC(N)=O)CSCC(=O)N[C@@H](Cc2ccc(O)cc2)C(=O)N1C` (stereo partly drawn) [Example 10216] ({CH2CO}-Y[NMeNle]NPS[hSer]PW[hSer]W[NMeA][NMeA][Orn][ξC]G-NH2; thioether N-14), the IC50 lay in the range of 1 to 10 µM.
The same measure for `CCCC[C@H]1C(=O)N2CCC[C@@H]2C(=O)N[C@@H](CC(=O)O)C(=O)N[C@@H](C(C)C)C(=O)N(C)[C@@H](Cc2ccccc2)C(=O)N[C@@H](CCC(=O)O)C(=O)N2CCC[C@@H]2C(=O)N[C@@H](Cc2c[nH]c3ccccc23)C(=O)N[C@@H](Cc2ccc(O)cc2)C(=O)N[C@@H](CC(C)C)C(=O)N[C@H](C(=O)NCC(N)=O)CSCC(=O)N[C@@H](Cc2ccc(F)cc2)C(=O)N(C)[C@@H](Cc2ccccc2)C(=O)N1C` [Example 10107] ({CH2CO}-[Phe(4-F)][NMeF][NMeNle][dP]DV[NMeF]E[dP]WYLCG-NH2; thioether N-13): 0.001 to 0.0099 µM; for `CCCC[C@H]1C(=O)N2CCC[C@@H]2C(=O)N[C@@H](CO)C(=O)N[C@@H](CC)C(=O)N(C)[C@@H](Cc2ccccc2)C(=O)N[C@@H](Cc2ccc(O)cc2)C(=O)N2CCCC[C@@H]2C(=O)N[C@@H](Cc2c[nH]c3ccccc23)C(=O)N[C@@H](Cc2ccc(O)cc2)C(=O)N[C@@H](CC(C)C)C(=O)N[C@H](C(=O)NCC(N)=O)CSCC(=O)N[C@@H](Cc2ccccc2)C(=O)N(C)[C@@H](Cc2ccccc2)C(=O)N1C` [Example 10060] ({CH2CO}-F[NMeF][NMeNle][dP]S[Abu][NMeF]Y[dPip]WYLCG-NH2; thioether N-13): 0.01 to 0.0999 µM; for `CCCC[C@H]1C(=O)N2CCC[C@@H]2C(=O)N[C@@H](CC(=O)O)C(=O)N[C@@H](C(C)C)C(=O)N(C)[C@@H](C(C)C)C(=O)N[C@@H](CCC(N)=O)C(=O)N2CCC[C@@H]2C(=O)N[C@@H](Cc2c[nH]c3ccccc23)C(=O)N[C@@H](Cc2ccc(O)cc2)C(=O)N[C@@H](CCCN)C(=O)N[C@H](C(=O)NCC(N)=O)CSCC(=O)N[C@@H](Cc2ccc(F)cc2)C(=O)N(C)[C@@H](Cc2ccccc2)C(=O)N1C` [Example 9247] ({CH2CO}-[Phe(4-F)][NMeF][NMeNle][dP]DV[NMeV]Q[dP]WY[Orn]CG-NH2; thioether N-13): 1 to 10 µM.
Next, `CCCC[C@H]1C(=O)N(C)[C@@H](CCCC)C(=O)N[C@@H](CC(C)C)C(=O)N[C@H](C(=O)NCC(N)=O)CSCC(=O)N[C@@H](Cc2ccc(O)cc2)C(=O)N(C)[C@@H](C)C(=O)N[C@@H](CC(N)=O)C(=O)N2CCC[C@H]2C(=O)N[C@@H](Cc2c[nH]cn2)C(=O)N[C@@H](CCC(=O)O)C(=O)N2C[C@H](O)C[C@H]2C(=O)N[C@@H]([C@@H](C)c2c[nH]c3ccccc23)C(=O)N[C@@H](CCN)C(=O)N[C@@H](Cc2c[nH]c3ccccc23)C(=O)N1C` [Example 10555] ({CH2CO}-Y[NMeA]NPHE[Hyp][Trp(βS-Me)][Dab]W[NMeNle][NMeNle]LCG-NH2; thioether N-14): 0.001 to 0.0099 µM; `CCCC[C@H]1C(=O)N[C@@H](CC(N)=O)C(=O)N2CCC[C@H]2CN[C@@H](CO)C(=O)N[C@@H](CCO)C(=O)N2CCC[C@H]2C(=O)N[C@@H](Cc2c[nH]c3ccccc23)C(=O)N[C@@H](CCN)C(=O)N[C@@H](Cc2c[nH]c3ccccc23)C(=O)N(C)[C@@H](C)C(=O)N(C)[C@@H](C)C(=O)N[C@@H](CCCNC(=N)N)C(=O)NC(C(=O)NCC(N)=O)CSCC(=O)N[C@@H](Cc2ccc(O)cc2)C(=O)N1C` (stereo partly drawn) [Example 10197]: 1 to 10 µM.
